Reference: patent US20260174747A1, “COMPUTER IMPLEMENTED METHODS OF GENERATING DOSE RECOMMENDATIONS” (National University of Singapore, priority 2022, published 2026)

Assay: Retrospective analysis of tacrolimus trough levels (TTL) under SOC dosing, 30 days after pediatric liver transplantation
Assay type: in vivo, pediatric liver transplant patients
Procedure: CURATE.AI requires two components to be supplied into the platform as inputs: the administered tacrolimus dose in mg (dose) and the corresponding TTL in ng/ml (response) to generate a personalized profile for each patient. […] The response input was the corresponding TTL response measured the next day, right before the morning dose. Days with two measurements of TTL (taken in the morning and evening) instead of one, which is the standard frequency, were excluded. TTL measurements <2 ng/ml were assessed to be inaccurate as the measurement equipment was unable to provide resolution for TTL<2 ng/ml, and were thus excluded. All measurements in the records were only taken once each. Doses recorded from day 30 post-transplant onwards were not included as part of this study since it is during the initial post-transplant period that fluctuations in TTL are common; thereby requiring frequent adjustments in drug dosing. […] Doses recorded from the day of discharge onwards were assessed to be unreliable, as confirmation of the doses administered was not possible, and thus excluded. This study used dose-response pairs over a set of consecutive days for each patient for the analysis by CURATE.AI. Dose ranges were categorized as low (<2 mg), medium (2 mg to <4 mg), and high (≥4 mg).
The normality of the data distribution was tested with the Shapiro-Wilk test. Continuous variables were represented as mean (standard deviation (SD)) or median (interquartile range (IQR)), depending on the normality of the data type. Two-sided Wilcoxon signed-rank test was used to compare the medians of two non-parametric groups. Two-sided paired t-test was used to compare the means of two related parametric groups. The statistical significance was defined as p<0.05. All analyses were performed in Python (version 3.9.13).
The grey region represents the therapeutic range of between and inclusive of 7 and 10 ng/ml. Blue and orange markers represent TTL outside and within the therapeutic range, respectively. […]

days within the therapeutic range (TTL 7 to 10 ng/ml), mean (16 patients, mean (SD)): 42.18 % of days | mean TTL (tacrolimus trough level) (all 16 patients, first 30 days post-transplant, mean (SD)): 8.79 ng/mL | time to first achieve the therapeutic range (TTL 7 to 10 ng/ml), median (median (IQR)): 5.00 days
SMILES: C=CC[C@@H]1/C=C(\C)C[C@H](C)C[C@H](OC)[C@H]2O[C@@](O)(C(=O)C(=O)N3CCCC[C@H]3C(=O)O[C@H](/C(C)=C/[C@@H]3CC[C@@H](O)[C@H](OC)C3)[C@H](C)[C@@H](O)CC1=O)[C@H](C)C[C@@H]2OC [tacrolimus]
